Measured values: paper PMC7249761 (Journal of thoracic oncology : official publication of the …, 2016)

How the values were obtained:
[1] = tested on: cytochrome P450 family 3 subfamily A member 4 [CYP3A4]; settings: cited from earlier work
[2] = type: in vivo, patients; settings: with crizotinib 150 mg twice daily; 3 plus 3 design

Row | SMILES | CYP3A4 inhibition [1] | maximum tolerated dose (MTD) of erlotinib in the combination [2]
1 | C[C@@H](Oc1cc(-c2cnn(C3CCNCC3)c2)cnc1N)c1c(Cl)ccc(F)c1Cl [crizotinib] | moderate cytochrome P450 family 3 subfamily A member 4 [CYP3A4] inhibitor | 
2 | C#Cc1cccc(Nc2ncnc3cc(OCCOC)c(OCCOC)cc23)c1 [erlotinib] |  | 100 mg once daily
